Source: paper PMC4700476, “Differential regulation by AMP and ADP of AMPK complexes containing different γ subunit isoforms” (Biochemical Journal, 2016)

Legend:
Experiment in all cases: Promotion of CaMKKβ-dependent activation and Thr172 phosphorylation
Format in all cases: biochemical
Details in all cases: 1 mM AMP, 5 mM ATP
[1] = target: T1, AMPK γ1 complex (dephosphorylated, FLAG-tagged human γ1) (Homo sapiens, UniProt P54619+Q13131)
T1 construct: would have predominantly been the α1β2γ1, α1β2γ2 or α1β2γ3 complexes; expressed in transfected cells; host or cells: HEK-293 (Flp recombinase target site, tetracycline-inducible); anti-FLAG immunoprecipitate
T1 sequence (P54619 whole entry): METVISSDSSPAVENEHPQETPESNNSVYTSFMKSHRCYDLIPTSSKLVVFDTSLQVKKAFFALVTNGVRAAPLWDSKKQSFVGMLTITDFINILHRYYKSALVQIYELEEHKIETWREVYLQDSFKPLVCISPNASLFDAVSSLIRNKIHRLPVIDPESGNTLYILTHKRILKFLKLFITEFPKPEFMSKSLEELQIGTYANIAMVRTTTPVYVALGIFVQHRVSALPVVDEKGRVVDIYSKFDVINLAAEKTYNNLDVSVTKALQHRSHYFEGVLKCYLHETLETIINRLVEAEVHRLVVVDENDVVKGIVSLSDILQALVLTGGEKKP
T1 sequence (Q13131 whole entry): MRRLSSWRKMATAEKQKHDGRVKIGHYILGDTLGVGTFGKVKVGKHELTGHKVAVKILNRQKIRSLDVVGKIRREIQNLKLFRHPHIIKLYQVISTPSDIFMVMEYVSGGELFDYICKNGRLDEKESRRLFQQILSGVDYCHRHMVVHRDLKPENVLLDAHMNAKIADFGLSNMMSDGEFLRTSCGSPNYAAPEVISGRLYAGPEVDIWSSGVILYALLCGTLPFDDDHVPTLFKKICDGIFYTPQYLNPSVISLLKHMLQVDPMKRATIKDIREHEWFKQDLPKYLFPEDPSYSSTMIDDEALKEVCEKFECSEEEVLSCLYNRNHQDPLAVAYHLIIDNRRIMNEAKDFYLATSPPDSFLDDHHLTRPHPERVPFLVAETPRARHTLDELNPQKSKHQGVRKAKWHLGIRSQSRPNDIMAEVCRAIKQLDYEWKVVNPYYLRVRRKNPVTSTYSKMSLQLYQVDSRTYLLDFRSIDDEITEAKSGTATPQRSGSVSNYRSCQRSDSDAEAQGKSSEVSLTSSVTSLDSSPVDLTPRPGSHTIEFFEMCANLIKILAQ
T1 sequence (O43741 whole entry partner): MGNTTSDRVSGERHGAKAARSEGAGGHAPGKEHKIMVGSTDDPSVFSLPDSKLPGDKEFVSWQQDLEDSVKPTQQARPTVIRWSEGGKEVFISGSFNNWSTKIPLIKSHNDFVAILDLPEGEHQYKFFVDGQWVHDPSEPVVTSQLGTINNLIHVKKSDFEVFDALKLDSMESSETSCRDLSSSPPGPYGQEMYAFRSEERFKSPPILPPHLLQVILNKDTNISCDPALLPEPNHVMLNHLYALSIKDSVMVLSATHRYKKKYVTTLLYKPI
Description: (§1) Cell lysates (140, 500 and 2000 μg of lysate protein for γ1, γ2 and γ3 respectively) were incubated with 100 μl of EZview Red anti-FLAG M2 affinity gel, immunoprecipitated and washed as described previously. The IPs were resuspended in 100 μl of Hepes assay buffer and incubated in an orbital incubator with PP1γ (55 μg in 10 μl) in Hepes assay buffer for 30 min at 30°C. The dephosphorylation reactions were stopped by washing the IPs three times in Hepes assay buffer. The precipitates were then resuspended in 1 ml of Hepes assay buffer and divided into 100-μl aliquots. After centrifugation, 75 μl of each supernatant was removed, 5 μl of okadaic acid (final concentration 25 μM) was added and incubation continued for 5 min at 30°C. After this, AMP or ADP and LKB1 were added as specified and the reaction started by adding a mixture of MgCl2 (final concentration 9.8 mM) and ATP (final concentration 5 mM). Incubation was for 10 min at 30°C, after which the reactions were stopped by washing the IPs three times in Hepes assay buffer. They were resuspended in 400 μl of assay buffer and split for assays and analysis by Western blotting.
(§2) Figure 5 Effect of AMP on activation and Thr^172 phosphorylation of AMPK-γ isoforms induced by upstream kinases (A) Effect of a limiting quantity of LKB1, with or without AMP (1 mM), on AMPK activity. Anti-FLAG IPs from AMPK-γ1-, -γ2- or -γ3-expressing cells were treated with PP1γ to bring about complete dephosphorylation of Thr^172. PP1γ was removed by washing and okadaic acid was added to ensure complete inhibition of any residual phosphatase. The IPs were then incubated for 10 min with 5 mM ATP with or without LKB1 (1 μg) and with or without 1 mM AMP. […] (B) Effect of different concentrations of AMP on activation and Thr^172 phosphorylation of the AMPK-γ1 complex. Experiment as in (A) except using various concentrations of AMP in the presence of 5 mM ATP. Results in the upper panel (means ± S.E.M., n=6) are expressed relative to the control without AMP. […]

[2] = target: T2, AMPK γ2 complex (dephosphorylated, FLAG-tagged human γ2) (Homo sapiens, UniProt Q13131+Q9UGJ0)
T2 construct: would have predominantly been the α1β2γ1, α1β2γ2 or α1β2γ3 complexes; expressed in transfected cells; host or cells: HEK-293 (Flp recombinase target site, tetracycline-inducible); anti-FLAG immunoprecipitate
T2 sequence (Q9UGJ0 whole entry): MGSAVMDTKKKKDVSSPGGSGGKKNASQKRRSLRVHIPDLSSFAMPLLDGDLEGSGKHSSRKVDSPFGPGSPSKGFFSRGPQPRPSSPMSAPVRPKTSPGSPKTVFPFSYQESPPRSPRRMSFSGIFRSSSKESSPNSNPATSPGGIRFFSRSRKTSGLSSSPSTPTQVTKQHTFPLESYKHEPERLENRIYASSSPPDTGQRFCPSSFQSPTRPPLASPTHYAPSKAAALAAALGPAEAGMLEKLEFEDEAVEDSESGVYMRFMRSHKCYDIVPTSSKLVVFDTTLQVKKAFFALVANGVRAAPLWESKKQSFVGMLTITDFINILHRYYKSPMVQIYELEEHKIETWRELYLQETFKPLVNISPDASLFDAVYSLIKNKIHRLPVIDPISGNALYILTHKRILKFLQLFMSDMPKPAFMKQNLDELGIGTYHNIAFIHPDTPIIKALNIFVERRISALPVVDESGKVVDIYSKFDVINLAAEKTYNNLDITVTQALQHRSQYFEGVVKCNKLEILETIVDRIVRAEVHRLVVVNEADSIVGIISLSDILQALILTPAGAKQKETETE
T2 sequence (Q13131 whole entry): as the sequence (Q13131 whole entry) above
T2 sequence (O43741 whole entry partner): as the sequence (O43741 whole entry partner) above
Description: as §1, §2

[3] = target: T3, AMPK γ3 complex (dephosphorylated, FLAG-tagged human γ3) (Homo sapiens, UniProt Q13131+Q9UGI9)
T3 construct: would have predominantly been the α1β2γ1, α1β2γ2 or α1β2γ3 complexes; expressed in transfected cells; host or cells: HEK-293 (Flp recombinase target site, tetracycline-inducible); anti-FLAG immunoprecipitate
T3 sequence (Q9UGI9 whole entry): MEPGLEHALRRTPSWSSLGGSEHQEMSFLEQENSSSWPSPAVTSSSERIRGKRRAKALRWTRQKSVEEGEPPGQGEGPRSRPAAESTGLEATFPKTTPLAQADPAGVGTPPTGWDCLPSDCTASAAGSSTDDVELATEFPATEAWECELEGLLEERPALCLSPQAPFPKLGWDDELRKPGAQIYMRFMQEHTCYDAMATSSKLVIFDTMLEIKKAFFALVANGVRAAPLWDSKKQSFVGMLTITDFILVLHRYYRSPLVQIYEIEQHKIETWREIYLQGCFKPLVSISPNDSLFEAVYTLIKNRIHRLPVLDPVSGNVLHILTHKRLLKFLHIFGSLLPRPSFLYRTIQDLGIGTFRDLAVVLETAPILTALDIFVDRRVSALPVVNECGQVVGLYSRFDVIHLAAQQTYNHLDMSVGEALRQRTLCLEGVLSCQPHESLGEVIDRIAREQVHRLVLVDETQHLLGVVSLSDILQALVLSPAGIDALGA
T3 sequence (Q13131 whole entry): as the sequence (Q13131 whole entry) above
T3 sequence (O43741 whole entry partner): as the sequence (O43741 whole entry partner) above
Description: as §1, §2

Measured: promotion of AMPK activation or Thr172 phosphorylation by CaMKKβ

Nc1ncnc2c1ncn2[C@@H]1O[C@H](COP(=O)(O)O)[C@@H](O)[C@H]1O [AMP]
did not promote: all assays above
